Test results as given in patent publication US11753407B2, “Compounds for treating spinal muscular atrophy” (PTC Therapeutics, Inc., priority 2012, dated 2023).

Experiments:
[1] = system: Smn protein in SMA patient fibroblast cells (GM03813); test: Smn protein assay in cultured cells (SMN HTRF); format: cell-based, human; conditions: SMA patient fibroblast cells, 48 hours; for maximum fold (Fold) increase of Smn protein: 7-point concentration data, fold relative to vehicle control; for EC1.5x for Smn protein expression: 7-point concentration curve, SMN HTRF, concentration producing 1.5 times Smn protein vs DMSO vehicle control
Procedure, shortened: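 Read-out: HTRF 665/620 nm ratio, blank-subtracted as ΔF, then expressed as fold over DMSO vehicle. Fibroblasts from SMA patients were exposed to compounds for 48 h (7 points, 3.16-fold steps, triplicates). Values are EC1.5× and maximum fold Smn increase.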

[2] = system: SMN2 minigene mRNA (SMN2-A minigene) in HEK293H cells; test: SMN2 minigene mRNA splicing RT-qPCR assay in cultured cells; format: cell-based, human; conditions: Homo sapiens, HEK293-H; concentration increasing full length SMN2 mRNA 1.5-fold relative to vehicle-treated cells; HEK293H cells with SMN2-A minigene, 24 hours, 7-point concentration data; read-out: EC1.5x for production of full length SMN2 mRNA
Procedure, shortened: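 Read-out: minigene-specific full-length (exon 7-included) SMN2 mRNA by one-step multiplex RT-qPCR, normalized to GAPDH and divided by vehicle-treated level. Stable SMN2-A minigene HEK293H cells, 24 h compound exposure, 7 concentrations in duplicate. EC1.5× = concentration raising FL mRNA 1.5-fold.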

Compound	melting point [°C]	maximum fold (Fold) increase of Smn protein [1]	EC (1.5-fold increase) [2] [µM]	EC1.5x for Smn protein expression [1]
COc1ccc(-c2cc(=O)n3cc(N4CCC(N5CCOCC5)CC4)cc(C)c3n2)cc1OC [Compound 419, 2-(3,4-dimethoxyphenyl)-9-methyl-7-[4-(morpholin-4-yl)piperidin-1-yl]-4H-pyrido[1,2-a]pyrimidin-4-one]	219 to 224	** (a fold increase between >1.2 and ≤1.35 is indicated by two stars (**))	0.1 to 0.3	
Cc1cn2nc(-c3cc(=O)n4cc(N5CCNCC5)ccc4n3)cc2cn1 [Compound 420, 2-(6-methylpyrazolo[1,5-a]pyrazin-2-yl)-7-(piperazin-1-yl)-4H-pyrido[1,2-a]pyrimidin-4-one]	202 to 204	**** (a fold increase between >1.5 and ≤1.65 is indicated by four stars (****))	< 0.1	**** (an EC1.5x≤0.3 μM is indicated by four stars (****))
Cc1nc2ccc(-c3cc(=O)n4cc(C5=CCN(C)CC5)ncc4n3)cc2o1 [Compound 422, 2-(2-methyl-1,3-benzoxazol-6-yl)-7-(1-methyl-1,2,3,6-tetrahydropyridin-4-yl)-4H-pyrazino[1,2-a]pyrimidin-4-one]	240 to 242	*** (a fold increase between >1.35 and ≤1.5 is indicated by three stars (***))	< 0.1	** (an EC1.5× between >1 μM and ≤3 μM is indicated by two stars (**))
CCN1CC=C(c2cn3c(=O)cc(-c4ccc5nc(C)oc5c4)nc3cn2)CC1 [Compound 423, 7-(1-ethyl-1,2,3,6-tetrahydropyridin-4-yl)-2-(2-methyl-1,3-benzoxazol-6-yl)-4H-pyrazino[1,2-a]pyrimidin-4-one]	225 to 227	**** (a fold increase between >1.5 and ≤1.65 is indicated by four stars (****))	< 0.1	*** (an EC1.5× between >0.3 μM and ≤1 μM is indicated by three stars (***))
Cc1cn2cc(-c3cc(=O)n4cc(C5=CCNCC5)ccc4n3)ccc2n1 [Compound 429, 2-(2-methylimidazo[1,2-a]pyridin-6-yl)-7-(1,2,3,6-tetrahydropyridin-4-yl)-4H-pyrido[1,2-a]pyrimidin-4-one]	206 to 208	**** (a fold increase between >1.5 and ≤1.65 is indicated by four stars (****))	< 0.1	**** (an EC1.5x≤0.3 μM is indicated by four stars (****))
Cc1cn2cc(-c3cc(=O)n4cc(C5=CCN(C)CC5)ccc4n3)ccc2n1 [Compound 430, 2-(2-methylimidazo[1,2-a]pyridin-6-yl)-7-(1-methyl-1,2,3,6-tetrahydropyridin-4-yl)-4H-pyrido[1,2-a]pyrimidin-4-one]	137 to 140	**** (a fold increase between >1.5 and ≤1.65 is indicated by four stars (****))	< 0.1	**** (an EC1.5x≤0.3 μM is indicated by four stars (****))
CCN1CC=C(c2ccc3nc(-c4ccc5nc(C)cn5c4)cc(=O)n3c2)CC1 [Compound 431, 7-(1-ethyl-1,2,3,6-tetrahydropyridin-4-yl)-2-(2-methylimidazo[1,2-a]pyridin-6-yl)-4H-pyrido[1,2-a]pyrimidin-4-one]	220 to 223	***** (a fold increase >1.65 is indicated by five stars (*****))	< 0.1	**** (an EC1.5x≤0.3 μM is indicated by four stars (****))

Continued, in another order:

melting point [°C]	Compound	maximum fold (Fold) increase of Smn protein [1]	EC (1.5-fold increase) [2] [µM]	EC1.5x for Smn protein expression [1]
222 to 224	Cc1nc2ccc(-c3cc(=O)n4cc(C5CCNCC5)ccc4n3)cc2s1 [Compound 424, 2-(2-methyl-1,3-benzothiazol-6-yl)-7-(piperidin-4-yl)-4H-pyrido[1,2-a]pyrimidin-4-one]	***** (a fold increase >1.65 is indicated by five stars (*****))	< 0.1	**** (an EC1.5x≤0.3 μM is indicated by four stars (****))
215 to 218	Cc1cn2nc(-c3cc(=O)n4cc(N5CCC(N6CCCC6)CC5)ccc4n3)cc2c(C)n1 [Compound 425, 2-(4,6-dimethylpyrazolo[1,5-a]pyrazin-2-yl)-7-[4-(pyrrolidin-1-yl)piperidin-1-yl]-4H-pyrido[1,2-a]pyrimidin-4-one]	***** (a fold increase >1.65 is indicated by five stars (*****))	< 0.1	**** (an EC1.5x≤0.3 μM is indicated by four stars (****))
236 to 238	Cc1cn2nc(-c3cc(=O)n4cc(N5CCC(N6CCCCC6)CC5)ccc4n3)cc2c(C)n1 [Compound 426, 7-(1,4′-bipiperidin-1′-yl)-2-(4,6-dimethylpyrazolo[1,5-a]pyrazin-2-yl)-4H-pyrido[1,2-a]pyrimidin-4-one]	***** (a fold increase >1.65 is indicated by five stars (*****))	0.3 to 1	*** (an EC1.5× between >0.3 μM and ≤1 μM is indicated by three stars (***))
198 to 200	Cc1cn2nc(-c3cc(=O)n4cc(N5CCC(N6CCN(C)CC6)CC5)ccc4n3)cc2c(C)n1 [Compound 427, 2-(4,6-dimethylpyrazolo[1,5-a]pyrazin-2-yl)-7-[4-(4-methylpiperazin-1-yl)piperidin-1-yl]-4H-pyrido[1,2-a]pyrimidin-4-one]	*** (a fold increase between >1.35 and ≤1.5 is indicated by three stars (***))	1 to 3	* (An EC1.5× for Smn protein expression between >3 μM and ≤10 μM is indicated by one star (*))
192 to 195	Cc1cn2nc(-c3cc(=O)n4cc(N5CCC(N6CCOCC6)CC5)ccc4n3)cc2c(C)n1 [Compound 428, 2-(4,6-dimethylpyrazolo[1,5-a]pyrazin-2-yl)-7-[4-(morpholin-4-yl)piperidin-1-yl]-4H-pyrido[1,2-a]pyrimidin-4-one]	*** (a fold increase between >1.35 and ≤1.5 is indicated by three stars (***))	0.3 to 1	** (an EC1.5× between >1 μM and ≤3 μM is indicated by two stars (**))
204 to 206	Cc1cn2cc(-c3cc(=O)n4cc(N5CCC(N(C)C)CC5)ccc4n3)ccc2n1 [Compound 432, 7-[4-(dimethylamino)piperidin-1-yl]-2-(2-methylimidazo[1,2-a]pyridin-6-yl)-4H-pyrido[1,2-a]pyrimidin-4-one]	***** (a fold increase >1.65 is indicated by five stars (*****))	< 0.1	**** (an EC1.5x≤0.3 μM is indicated by four stars (****))
185 to 193	COc1ccc(-c2cc(=O)n3cc(N4CCC(NCCO)CC4)cc(C)c3n2)cc1OC [Compound 433, 2-(3,4-dimethoxyphenyl)-7-{4-[(2-hydroxyethyl)amino]piperidin-1-yl}-9-methyl-4H-pyrido[1,2-a]pyrimidin-4-one]	*** (a fold increase between >1.35 and ≤1.5 is indicated by three stars (***))	< 0.1	
146	CCc1cc(C2CCN(C)CC2)cn2c(=O)cc(-c3ccc(OC)c(OC)c3)nc12 [Compound 434, 2-(3,4-dimethoxyphenyl)-9-ethyl-7-(1-methylpiperidin-4-yl)-4H-pyrido[1,2-a]pyrimidin-4-one]	** (a fold increase between >1.2 and ≤1.35 is indicated by two stars (**))	0.3 to 1	
149 to 155	CCN(CC)C1CCN(c2cc(C)c3nc(-c4ccc(OC)c(OC)c4)cc(=O)n3c2)CC1 [Compound 435, 7-[4-(diethylamino)piperidin-1-yl]-2-(3,4-dimethoxyphenyl)-9-methyl-4H-pyrido[1,2-a]pyrimidin-4-one]	*** (a fold increase between >1.35 and ≤1.5 is indicated by three stars (***))	0.1 to 0.3	
157 to 162	CCc1cc(C2CCN(CC)CC2)cn2c(=O)cc(-c3ccc(OC)c(OC)c3)nc12 [Compound 436, 2-(3,4-dimethoxyphenyl)-9-ethyl-7-(1-ethylpiperidin-4-yl)-4H-pyrido[1,2-a]pyrimidin-4-one]	** (a fold increase between >1.2 and ≤1.35 is indicated by two stars (**))	0.3 to 1	
230 to 232	Cc1cn2cc(-c3cc(=O)n4cc(N5CCC(N6CCCC6)CC5)ccc4n3)ccc2n1 [Compound 437, 2-(2-methylimidazo[1,2-a]pyridin-6-yl)-7-[4-(pyrrolidin-1-yl)piperidin-1-yl]-4H-pyrido[1,2-a]pyrimidin-4-one]	**** (a fold increase between >1.5 and ≤1.65 is indicated by four stars (****))	0.1 to 0.3	*** (an EC1.5× between >0.3 μM and ≤1 μM is indicated by three stars (***))
